From US20120245188A1, “METHODS OF TREATING MEMORY LOSS AND ENHANCING MEMORY PERFORMANCE” (priority 2010, published 2012)

Experiments:
cultured neurons = settings: cited from earlier work
[1] = tested on: seventeen month old male Fischer-344 rats; assay: Spatial reference memory, Morris Water Maze in aged rats; format: in vivo, rat
Description: Working memory can also be tested using the Morris water maze. In general, the Morris water maze is a large round tub of opaque water with […] located 1-2 cm under the water's surface. The rat is placed on a start platform. The rat swims around until it finds the other platform to stand on. External cues, such as patterns or the standing researcher, are placed around the pool in the same spot every time to help the rat learn where the end platform is. The researcher measures how long it takes for a rat to find hidden platform, by changing or moving and using different spatial cues. The Morris water maze tests the spatial learning, cognitive maps and memory. The rats under the Morris water maze test may be given particular drugs or treatment conditions to see if these impair or enhance short-term memory. In one embodiment, the subject may be administered a pharmaceutical composition comprising SB 239063. The role of SB239063 on spatial memory performance was tested in the aged rat model. […] Dosing was initiated three days prior to testing and continued throughout the experiment until sacrifice (FIG. 1). Rats were tested on a maze battery including the spatial reference memory Morris maze (MM), and a delay match to sample task (DMS) where the spatial location of the platform needed to be updated on a daily basis, thereby evaluating short term memory (FIG. 2). Spatial Reference Memory—Morris Water Maze: For the Morris Water Maze, 6 trials per day for 3 days were carried out. […] Mean (±Standard Error) swim distance across all days of testing for all rats are depicted in FIG. 3.

[2] = tested on: adjuvant-induced arthritis; settings: 10 mg/kg, administered orally, rats; cited from earlier work
moderate stroke = settings: oral administration of 15 mg/kg before moderate stroke; cited from earlier work
[3] = tested on: seventeen month old male Fischer-344 rats; assay: Working memory, Delay Match to Sample water maze in aged rats; format: in vivo, rat; settings: high dose 30 mg/kg/day i.p.
Procedure: Other methods of evaluating spatial and visual working memory include Delayed-Match to Sample (DMS) asymmetrical 3-choice task, which is illustrated in detail in the Example section. The visible platform task was used to confirm that animals have the ability to perform the procedural components of water-escape maze testing, including the visual and motoric capacities necessary to swim towards and climb onto a platform. The role of SB239063 on spatial memory performance was tested in the aged rat model. […] Dosing was initiated three days prior to testing and continued throughout the experiment until sacrifice (FIG. 1). Rats were tested on a maze battery including the spatial reference memory Morris maze (MM), and a delay match to sample task (DMS) where the spatial location of the platform needed to be updated on a daily basis, thereby evaluating short term memory (FIG. 2). […] There was a significant Trial×Treatment Interaction in the process, and the swim distance F(5,10)=2.298 (p=0.0151). The high-dose receiving group learned the task faster, indicated by committing fewer errors compared to vehicle-only rats on trial 3 (FIG. 4B).

β form of p38 MAPK = β form of p38 MAPK (Homo sapiens, UniProt Q15759); settings: cited from earlier work
β form of p38 MAPK, sequence (Q15759 whole entry): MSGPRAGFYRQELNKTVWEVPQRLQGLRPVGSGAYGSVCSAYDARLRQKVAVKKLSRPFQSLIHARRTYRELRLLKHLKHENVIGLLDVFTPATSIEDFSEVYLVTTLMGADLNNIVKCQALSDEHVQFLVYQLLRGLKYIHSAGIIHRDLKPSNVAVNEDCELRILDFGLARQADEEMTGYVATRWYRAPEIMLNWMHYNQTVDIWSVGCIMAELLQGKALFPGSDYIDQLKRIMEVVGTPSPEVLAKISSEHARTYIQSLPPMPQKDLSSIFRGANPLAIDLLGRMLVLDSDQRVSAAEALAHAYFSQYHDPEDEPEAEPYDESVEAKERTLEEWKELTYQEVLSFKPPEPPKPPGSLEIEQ

In the case of `COc1nccc(-c2c(-c3ccc(F)cc3)ncn2[C@H]2CC[C@H](O)CC2)n1` [SB239063, trans-1-(4-hydroxycyclohexyl)-4-(4-fluorophenyl)-5-(2-methoxypyridimidin-4-yl)imidazole], the “protection against mild excitotoxic neuronal injury caused by NMDA” value (cultured neurons; NMDA (N-methyl D-aspartate)) is listed as “protect against mild excitotoxic neuronal injury”, the “protection against cell death induced by oxygen glucose deprivation (OGD) or magnesium deprivation” value (cultured neurons; cultured neurons) is listed as “substantial protection against cell death” and the “localization to the platformed quadrant during the probe trial by the last day of testing” value ([1]; all groups (15 and 30 mg/kg), p<0.005) is listed as “localized to the platformed quadrant”. The “linear trend for swim distance scores across days” value ([1]; high dose 30 mg/kg daily i.p., F(1,10)=1.531, p=0.244) was “did not show a linear trend”, the “Morris Water Maze spatial reference memory performance as days progressed” value ([1]; high dose 30 mg/kg/day i.p.) was “impaired” and the “linear trend for swim distance scores across days” value ([1]; low dose 15 mg/kg daily i.p., F(1,10)=19.253, p=0.001) was “showed a significant linear trend”. For the same molecule, the “Morris Water Maze spatial reference memory performance as days progressed” value ([1]; low dose 15 mg/kg/day i.p.) was “exhibited significant learning”, the “reduction of adjuvant-induced arthritis” value [2] was 51% and the “reduction of infarct volume” value (moderate stroke) was 48%. For the same molecule, the “reduction of neurological deficits” value (moderate stroke) was 42%, the “Three Choice Task errors on trial 3 compared to vehicle-only rats” value ([3]; Fisher post hoc p=0.011) was “fewer errors” and the “performance on DMS compared to vehicle-treated animals (learning of the new platform location)” value ([3]; p=0.01) was “enhanced performance”. The “inhibition of β form of p38 MAPK” value (β form of p38 MAPK) was “inhibits”.
